Test results from ChEMBL document CHEMBL5291721, “A preclinical secondary pharmacology resource illuminates target-adverse drug reaction associations of marketed drugs” (Nat Commun, 2023).

Experiments:
[1] = target: Neuronal acetylcholine receptor subunit alpha-4 (Homo sapiens, UniProt P43681)
[2] = target: Beta-1 adrenergic receptor (Homo sapiens, UniProt P08588); assay type: functional
[3] = target: T1, Type-1 angiotensin II receptor (Homo sapiens, UniProt P30556)
T1 sequence (P30556 whole entry): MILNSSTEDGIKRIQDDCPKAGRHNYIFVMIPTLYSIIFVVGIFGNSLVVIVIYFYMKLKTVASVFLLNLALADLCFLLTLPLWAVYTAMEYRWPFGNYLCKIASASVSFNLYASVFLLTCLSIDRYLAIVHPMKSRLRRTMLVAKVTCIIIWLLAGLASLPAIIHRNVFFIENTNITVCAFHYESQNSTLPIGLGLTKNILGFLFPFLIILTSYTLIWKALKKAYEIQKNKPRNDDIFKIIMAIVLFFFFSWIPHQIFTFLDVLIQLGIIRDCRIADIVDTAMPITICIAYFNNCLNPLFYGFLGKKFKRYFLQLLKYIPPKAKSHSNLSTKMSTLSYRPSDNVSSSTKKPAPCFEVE

[4] = target: 5-hydroxytryptamine receptor 2A (Homo sapiens, UniProt P28223); assay type: functional, cell-based
Sequence of 5-hydroxytryptamine receptor 2A (P28223 whole entry): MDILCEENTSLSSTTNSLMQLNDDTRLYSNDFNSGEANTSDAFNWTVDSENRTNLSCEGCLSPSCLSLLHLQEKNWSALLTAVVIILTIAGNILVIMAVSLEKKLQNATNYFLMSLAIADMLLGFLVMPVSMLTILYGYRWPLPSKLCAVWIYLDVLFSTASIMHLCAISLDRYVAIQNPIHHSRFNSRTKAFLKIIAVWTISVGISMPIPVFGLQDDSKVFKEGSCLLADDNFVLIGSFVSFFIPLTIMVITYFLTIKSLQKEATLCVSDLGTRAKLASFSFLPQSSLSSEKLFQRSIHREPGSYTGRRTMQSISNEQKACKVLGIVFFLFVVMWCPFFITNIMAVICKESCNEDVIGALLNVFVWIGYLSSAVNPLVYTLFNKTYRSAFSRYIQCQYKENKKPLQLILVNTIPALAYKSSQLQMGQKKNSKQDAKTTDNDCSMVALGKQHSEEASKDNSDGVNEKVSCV

[5] = target: T2, Neuropeptide Y receptor type 1 (Homo sapiens, UniProt P25929)
T2 sequence (P25929 whole entry): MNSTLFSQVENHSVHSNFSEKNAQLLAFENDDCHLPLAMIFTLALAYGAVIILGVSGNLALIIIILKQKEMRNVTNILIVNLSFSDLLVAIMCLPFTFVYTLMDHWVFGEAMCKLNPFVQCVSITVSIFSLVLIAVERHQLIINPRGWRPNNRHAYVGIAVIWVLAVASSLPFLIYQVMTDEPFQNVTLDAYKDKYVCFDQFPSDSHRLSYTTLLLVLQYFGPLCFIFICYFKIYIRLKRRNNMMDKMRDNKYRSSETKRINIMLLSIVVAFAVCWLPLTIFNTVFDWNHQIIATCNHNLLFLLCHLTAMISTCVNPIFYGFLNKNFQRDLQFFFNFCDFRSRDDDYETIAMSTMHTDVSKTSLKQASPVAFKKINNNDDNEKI

Glucocorticoid receptor = target: T3, Glucocorticoid receptor (Homo sapiens, UniProt P04150)
T3 sequence (P04150 whole entry): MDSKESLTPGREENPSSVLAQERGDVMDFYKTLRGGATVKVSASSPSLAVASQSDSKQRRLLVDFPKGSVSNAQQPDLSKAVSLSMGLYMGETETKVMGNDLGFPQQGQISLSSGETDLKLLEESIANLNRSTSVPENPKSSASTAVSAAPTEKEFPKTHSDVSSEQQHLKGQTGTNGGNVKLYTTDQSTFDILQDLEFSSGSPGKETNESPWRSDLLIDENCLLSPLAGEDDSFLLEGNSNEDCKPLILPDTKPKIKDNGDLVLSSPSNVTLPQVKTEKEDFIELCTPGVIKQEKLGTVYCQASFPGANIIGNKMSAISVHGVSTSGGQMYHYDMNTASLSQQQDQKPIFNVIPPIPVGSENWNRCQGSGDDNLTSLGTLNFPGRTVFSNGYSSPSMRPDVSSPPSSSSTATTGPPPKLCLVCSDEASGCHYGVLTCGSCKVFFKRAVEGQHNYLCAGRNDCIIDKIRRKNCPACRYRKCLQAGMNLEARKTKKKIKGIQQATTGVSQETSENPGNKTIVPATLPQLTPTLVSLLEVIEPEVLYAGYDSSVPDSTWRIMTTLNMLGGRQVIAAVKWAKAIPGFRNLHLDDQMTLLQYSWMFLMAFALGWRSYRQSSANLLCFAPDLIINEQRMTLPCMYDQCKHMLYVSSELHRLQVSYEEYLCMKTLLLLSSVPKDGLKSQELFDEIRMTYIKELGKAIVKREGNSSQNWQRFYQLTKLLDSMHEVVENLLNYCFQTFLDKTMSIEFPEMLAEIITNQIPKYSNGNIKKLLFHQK

[6] = target: T4, Equilibrative nucleoside transporter 1 (Homo sapiens, UniProt Q99808)
T4 sequence (Q99808 whole entry): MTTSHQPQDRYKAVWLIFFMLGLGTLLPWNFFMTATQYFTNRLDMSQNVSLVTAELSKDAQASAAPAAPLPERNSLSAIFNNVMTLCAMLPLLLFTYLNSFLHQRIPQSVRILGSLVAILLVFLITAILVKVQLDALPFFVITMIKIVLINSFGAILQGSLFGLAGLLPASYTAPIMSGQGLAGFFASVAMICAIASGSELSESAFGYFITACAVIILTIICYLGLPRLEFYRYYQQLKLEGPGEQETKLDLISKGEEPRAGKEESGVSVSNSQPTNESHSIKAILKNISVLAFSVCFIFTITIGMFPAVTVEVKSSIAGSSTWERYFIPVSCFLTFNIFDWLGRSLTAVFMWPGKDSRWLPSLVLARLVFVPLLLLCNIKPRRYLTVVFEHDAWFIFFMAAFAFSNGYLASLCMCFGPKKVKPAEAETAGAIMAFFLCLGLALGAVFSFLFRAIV

[7] = target: Sodium-dependent serotonin transporter (Homo sapiens, UniProt P31645)
Sequence of Sodium-dependent serotonin transporter (P31645 whole entry): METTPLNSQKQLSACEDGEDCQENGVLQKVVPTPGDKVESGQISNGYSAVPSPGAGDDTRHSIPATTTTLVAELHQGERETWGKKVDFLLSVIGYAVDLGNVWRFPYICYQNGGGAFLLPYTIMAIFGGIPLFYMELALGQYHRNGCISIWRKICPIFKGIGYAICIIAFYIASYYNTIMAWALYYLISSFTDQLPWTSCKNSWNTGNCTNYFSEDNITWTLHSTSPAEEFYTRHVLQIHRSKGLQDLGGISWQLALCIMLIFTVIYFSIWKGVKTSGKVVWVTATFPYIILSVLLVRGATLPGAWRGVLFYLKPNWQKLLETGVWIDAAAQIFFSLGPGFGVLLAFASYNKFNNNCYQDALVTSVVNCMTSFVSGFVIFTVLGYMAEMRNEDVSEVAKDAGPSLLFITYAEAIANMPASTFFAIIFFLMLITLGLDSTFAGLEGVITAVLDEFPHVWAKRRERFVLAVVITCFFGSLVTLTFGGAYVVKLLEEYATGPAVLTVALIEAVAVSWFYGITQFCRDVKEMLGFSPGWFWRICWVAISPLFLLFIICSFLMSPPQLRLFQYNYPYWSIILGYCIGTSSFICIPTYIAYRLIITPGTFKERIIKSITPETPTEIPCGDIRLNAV

Histamine H3 receptor = Histamine H3 receptor (Homo sapiens, UniProt Q9Y5N1)
Sequence of Histamine H3 receptor (Q9Y5N1 whole entry): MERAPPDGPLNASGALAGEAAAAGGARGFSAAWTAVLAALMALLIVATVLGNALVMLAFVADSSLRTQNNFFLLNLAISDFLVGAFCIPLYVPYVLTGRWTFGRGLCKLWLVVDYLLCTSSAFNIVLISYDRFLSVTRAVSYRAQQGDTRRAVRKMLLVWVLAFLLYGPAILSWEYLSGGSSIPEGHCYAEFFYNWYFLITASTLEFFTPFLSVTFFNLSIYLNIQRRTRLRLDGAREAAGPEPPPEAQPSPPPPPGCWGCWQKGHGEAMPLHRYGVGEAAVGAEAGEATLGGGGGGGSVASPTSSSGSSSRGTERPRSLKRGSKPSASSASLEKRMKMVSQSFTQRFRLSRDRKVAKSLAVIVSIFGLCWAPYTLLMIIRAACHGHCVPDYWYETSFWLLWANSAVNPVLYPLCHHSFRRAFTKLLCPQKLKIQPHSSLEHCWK

[8] = target: Beta-2 adrenergic receptor (Homo sapiens, UniProt P07550); assay type: functional, cell-based
Sequence of Beta-2 adrenergic receptor (P07550 whole entry): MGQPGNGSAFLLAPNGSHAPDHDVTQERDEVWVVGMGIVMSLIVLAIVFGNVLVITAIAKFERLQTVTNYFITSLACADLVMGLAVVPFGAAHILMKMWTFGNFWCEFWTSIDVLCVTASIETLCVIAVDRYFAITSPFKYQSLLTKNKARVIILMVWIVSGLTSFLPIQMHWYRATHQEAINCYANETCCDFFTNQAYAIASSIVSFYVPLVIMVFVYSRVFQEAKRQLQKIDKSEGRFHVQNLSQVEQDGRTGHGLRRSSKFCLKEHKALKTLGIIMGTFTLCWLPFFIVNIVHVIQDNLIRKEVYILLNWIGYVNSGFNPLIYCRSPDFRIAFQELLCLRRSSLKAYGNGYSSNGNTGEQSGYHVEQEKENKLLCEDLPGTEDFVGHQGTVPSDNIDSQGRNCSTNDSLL

Melanocortin receptor 4 = Melanocortin receptor 4 (Homo sapiens, UniProt P32245)
Sequence of Melanocortin receptor 4 (P32245 whole entry): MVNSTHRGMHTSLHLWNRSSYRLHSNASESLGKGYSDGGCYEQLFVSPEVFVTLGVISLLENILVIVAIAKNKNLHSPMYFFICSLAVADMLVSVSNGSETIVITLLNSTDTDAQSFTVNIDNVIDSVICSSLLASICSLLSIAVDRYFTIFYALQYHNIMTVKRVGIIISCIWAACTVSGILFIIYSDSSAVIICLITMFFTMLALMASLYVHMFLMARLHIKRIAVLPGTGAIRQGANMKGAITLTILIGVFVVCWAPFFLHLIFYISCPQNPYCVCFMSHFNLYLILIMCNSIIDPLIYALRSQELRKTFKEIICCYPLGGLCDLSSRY
Also: assay procedure not described here.

Sequence of Beta-1 adrenergic receptor (P08588 whole entry): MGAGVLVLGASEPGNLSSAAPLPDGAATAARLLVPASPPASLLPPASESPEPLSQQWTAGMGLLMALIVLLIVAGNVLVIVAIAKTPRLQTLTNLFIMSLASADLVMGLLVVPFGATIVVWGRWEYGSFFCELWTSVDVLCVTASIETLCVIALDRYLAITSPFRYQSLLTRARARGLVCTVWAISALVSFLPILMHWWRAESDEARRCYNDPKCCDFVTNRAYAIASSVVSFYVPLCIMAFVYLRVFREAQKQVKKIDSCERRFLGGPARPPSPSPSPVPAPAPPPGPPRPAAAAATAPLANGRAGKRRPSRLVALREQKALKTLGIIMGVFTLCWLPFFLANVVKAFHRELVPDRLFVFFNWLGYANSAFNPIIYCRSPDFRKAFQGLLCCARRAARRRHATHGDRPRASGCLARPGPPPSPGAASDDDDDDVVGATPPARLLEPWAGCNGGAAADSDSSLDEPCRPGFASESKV
Sequence of Neuronal acetylcholine receptor subunit alpha-4 (P43681 whole entry): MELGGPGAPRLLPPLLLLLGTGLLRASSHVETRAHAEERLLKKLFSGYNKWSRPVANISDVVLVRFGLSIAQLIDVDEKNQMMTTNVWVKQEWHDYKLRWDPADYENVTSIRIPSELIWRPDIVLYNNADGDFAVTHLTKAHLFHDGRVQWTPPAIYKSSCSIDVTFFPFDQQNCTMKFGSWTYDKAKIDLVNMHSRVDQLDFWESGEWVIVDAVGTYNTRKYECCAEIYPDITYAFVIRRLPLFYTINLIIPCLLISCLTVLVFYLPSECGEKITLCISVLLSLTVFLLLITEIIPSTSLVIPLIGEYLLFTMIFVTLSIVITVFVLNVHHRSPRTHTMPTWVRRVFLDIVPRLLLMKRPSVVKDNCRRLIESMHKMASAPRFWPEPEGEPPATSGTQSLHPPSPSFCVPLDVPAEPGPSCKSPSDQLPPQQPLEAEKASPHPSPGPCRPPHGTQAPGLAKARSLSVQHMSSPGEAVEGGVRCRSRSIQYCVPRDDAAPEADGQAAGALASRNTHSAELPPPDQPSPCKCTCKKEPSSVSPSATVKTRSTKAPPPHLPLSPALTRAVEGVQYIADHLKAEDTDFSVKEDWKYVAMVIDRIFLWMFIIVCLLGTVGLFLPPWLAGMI

SMILES	AC50 [1] [µM]	AC50 [2] [µM]	AC50 [3] [µM]	AC50 [4] [µM]	AC50 [5] [µM]	AC50 (Glucocorticoid receptor) [µM]	AC50 [6] [µM]	AC50 [7] [µM]	AC50 (Histamine H3 receptor) [µM]	AC50 [8] [µM]	AC50 (Melanocortin receptor 4) [µM]
O=C(O)c1cccc(-c2noc(-c3ccccc3F)n2)c1	> 10										
NS(=O)(=O)c1cc(-c2nnn[nH]2)c(NCc2cccs2)cc1Cl [AZOSEMIDE]	> 30	> 30	> 30	> 30	> 30	> 30	> 30	> 30	> 30		
C[N+](C)(C)CC(=O)O [BETAINE]	> 30	> 30	> 30	> 30	> 30		> 30	> 30	> 30		
CCCC(=O)N1CCCN(c2nc(N)c3cc(OC)c(OC)cc3n2)CC1 [BUNAZOSIN]	> 30	> 30	> 30	> 30	> 30		> 30	> 30	> 30	> 30	
C[N+](C)(C)CCOC(N)=O [CARBAMOYLCHOLINE]	> 10	> 10	> 10		> 10		> 10			> 30	> 10
N[C@@H](CSCC(=O)O)C(=O)O [CARBOCYSTEINE]	> 30	> 30	> 30	> 30	> 30		> 30	> 30	> 30		
CC(C)(N)Cc1ccc(Cl)cc1 [CHLORPHENTERMINE]	10	> 10	> 30	> 30	> 30		> 30	4.57	> 10	> 30	> 30
CN(C)[C@@H]1C(O)=C(C(N)=O)C(=O)[C@@]2(O)C(O)=C3C(=O)c4c(O)ccc(Cl)c4[C@@H](O)[C@H]3C[C@@H]12 [DEMECLOCYCLINE]	> 10	> 10	> 10	> 10	> 10	> 30	> 10	> 10			> 10
O=C(Nc1ccccc1)OCC(CN1CCCCC1)OC(=O)Nc1ccccc1 (stereo not drawn) [DIPERODON]		> 10	> 30	> 30	> 30	> 30	> 30	> 10	> 10	> 30	> 30
C=C1C[C@@H]2[C@H](CC[C@]3(C)C(=O)CC[C@@H]23)[C@@]2(C)C=CC(=O)C=C12 [EXEMESTANE]	> 10	> 10	> 30	> 30	> 30		> 30	> 30	> 10	> 30	> 30
CC(C(O)c1ccc(O)cc1)N1CCC(Cc2ccccc2)CC1 (stereo not drawn) [IFENPRODIL]	> 30	23	> 30	9.6	> 30	> 30		0.28	> 30	> 30	
CS(=O)(=O)Nc1cc2occ(NC=O)c(=O)c2cc1Oc1ccccc1 [IGURATIMOD]								> 30			
CC(=O)N(CC(O)CO)c1c(I)c(C(=O)NCC(O)CO)c(I)c(C(=O)NCC(O)CO)c1I (stereo not drawn) [IOHEXOL]	> 10	> 30	> 30	> 30	> 30		> 30	> 30	> 10		> 30
CN(CCCN1c2ccccc2CCc2ccccc21)CC(=O)c1ccc(Cl)cc1 [LOFEPRAMINE]	> 30	> 30	> 30	6.6	> 30	> 30	> 30		> 30	> 30	
CC(=O)O[C@]1(C(C)=O)CC[C@H]2[C@@H]3C[C@H](C)C4=CC(=O)CC[C@]4(C)[C@H]3CC[C@@]21C [MEDROXYPROGESTERONE ACETATE]	> 30	> 30	> 30		> 30	0.015	> 30		> 30		
CN(C/C=C/c1ccccc1)Cc1cccc2ccccc12 [NAFTIFINE]	> 10	> 30	> 30		> 30	> 30	> 30		> 10	> 30	> 30
CC(C)NCC1CCc2cc(CO)c([N+](=O)[O-])cc2N1 (stereo not drawn) [OXAMNIQUINE]	> 10	> 10	> 10	> 30	> 10	> 10	> 30	39.6	> 10		> 10
CN(C)CCCN1c2ccccc2Sc2ccccc21 [PROMAZINE]		> 10	> 10		> 30		> 30		> 10	> 30	> 30
O=C(O)CCn1c2c(c3ccccc31)C[C@H](NS(=O)(=O)c1ccc(F)cc1)CC2 [RAMATROBAN]	> 30	> 30	> 30	> 10	> 30	> 30	> 30	> 30	> 30		> 30
O=P(O)(O)C(O)(Cc1cccnc1)P(=O)(O)O [RISEDRONIC ACID]	> 30	> 30	> 30		> 30	> 30	> 30		> 30		> 30
O=C1CCC(N2C(=O)c3ccccc3C2=O)C(=O)N1 (stereo not drawn) [THALIDOMIDE]		> 10	> 30		> 30	> 30	> 30		> 10	> 30	> 30
CC(=O)N[C@H]1[C@H]([C@H](O)[C@H](O)CO)OC(C(=O)O)=C[C@@H]1N=C(N)N [ZANAMIVIR]	> 30	> 30	> 30	> 30	> 30	> 30	> 30	> 30	> 30		> 30
